This is an account of results in ChEMBL document CHEMBL4052831, “The Discovery of N-(1-Methyl-5-(trifluoromethyl)-1H-pyrazol-3-yl)-5-((6- ((methylamino)methyl)pyrimidin-4-yl)oxy)-1H-indole-1-carboxamide (Acrizanib), a VEGFR-2 Inhibitor Specifically Designed for Topical Ocular Delivery, as a Therapy for Neovascular Age-Related Macular Degeneration” (J Med Chem, 2018).

Series [1] can be described thus: Intrinsic clearance in rat liver microsomes at 1 uM after 5 to 30 mins by LC-MS/MS analysis. In kind it is ADME, microsome. The conditions noted are these: read-out: CLH. (Liver microsomes are vesicles of endoplasmic reticulum, rich in cytochrome P450 enzymes.)
The target of series [2] is Vascular endothelial growth factor receptor 2 (Homo sapiens, UniProt P35968).
Description: Inhibition of KDR (unknown origin) expressed in mouse Ba/F3 cells
Another series deals with Mus musculus. The series can be described thus: Antiangiogenic activity in C57BL/6 mouse laser-induced choroidal neovascularization model assessed as inhibition of neovascularization administered 1% suspension using 3.5 uL topical drop to both eyes every 3 hrs for 9 hrs by microscopic analysis.
Series [3] deals with Rattus norvegicus. Description: Antiangiogenic activity in Brown Norway rat laser-induced choroidal neovascularization model assessed as inhibition of neovascularization administered 3% suspension using 4 uL topical drop to both eyes every 4.5 hrs for 9 hrs by microscopic analysis. It counts as functional.
Series [4] in a line: Cmax in retina of Brown Norway rat administered 0.3% suspension using 4 uL topical drop to both eyes every 3 hrs for 9 hrs over 10 days and single drop to each eye on day 11 by LC-MS/MS analysis. The conditions noted are these: topical or ocular, 4 uL of 0.3% suspension per eye. It counts as ADME.
Series [5] in a line: Cmax in posterior eye cup of Brown Norway rat administered 0.3% suspension using 4 uL topical drop to both eyes as single dose by LC-MS/MS analysis. In kind it is ADME. The conditions noted are these: topical or ocular, 4 uL of 0.3% suspension per eye.
Series [6] in a line: Cmax in plasma of Brown Norway rat administered 0.3% suspension using 4 uL topical drop to both eyes every 3 hrs for 9 hrs over 10 days and single drop to each eye on day 11 by LC-MS/MS analysis. In kind it is ADME. Conditions: topical or ocular, 4 uL of 0.3% suspension per eye.
Series [7] is described as follows: Cmax in cynomolgus monkey plasma administered 1% suspension using 30 uL topical drop to both eyes as single dose by LC-MS/MS analysis. Also noted: dose 30 uL, route ophthalmic. In kind it is ADME, Macaca fascicularis. Conditions: topical or ocular, 30 uL of 1% suspension per eye.
Series [8] can be described thus: Cmax in cynomolgus monkey plasma administered 1% solution using 30 uL topical drop to both eyes as single dose by LC-MS/MS analysis. In kind it is ADME, Macaca fascicularis. Conditions: topical or ocular, 30 uL of 1% solution per eye. The arrangement: dose 30 uL, route ophthalmic.
Series [9] is described as follows: AUC (0 to last) in retina of Brown Norway rat administered 0.3% suspension using 4 uL topical drop to both eyes every 3 hrs for 9 hrs over 10 days and single drop to each eye on day 11 by LC-MS/MS analysis. It counts as ADME. Conditions: topical or ocular, 4 uL of 0.3% suspension per eye.
Series [10] in a line: Half life in cynomolgus monkey plasma administered 1% suspension using 30 uL topical drop to both eyes as single dose by LC-MS/MS analysis. Conditions: topical or ocular, 30 uL of 1% suspension per eye. It counts as ADME, Macaca fascicularis.
Series [11] is described as follows: AUC (0 to 6 hrs) in cynomolgus monkey plasma administered 1% suspension using 30 uL topical drop to both eyes as single dose by LC-MS/MS analysis. In kind it is ADME, Macaca fascicularis. The arrangement: time < 6 hr, dose 30 uL, route ophthalmic. The conditions noted are these: topical or ocular, 30 uL of 1% suspension per eye.
Series [12] in a line: AUC (0 to last) in posterior eye cup of Brown Norway rat administered 0.3% suspension using 4 uL topical drop to both eyes as single dose by LC-MS/MS analysis. In kind it is ADME. The conditions noted are these: topical or ocular, 4 uL of 0.3% suspension per eye.
The nature of series [13]: Cmax in plasma of Brown Norway rat administered 0.3% suspension using 4 uL topical drop to both eyes as single dose by LC-MS/MS analysis. In kind it is ADME. The arrangement: dose 4 uL, route ophthalmic. The conditions noted are these: topical or ocular, 4 uL of 0.3% suspension per eye.
The nature of series [14]: Tmax in cynomolgus monkey plasma administered 1% solution using 30 uL topical drop to both eyes as single dose by LC-MS/MS analysis. In kind it is ADME, Macaca fascicularis. Conditions: topical or ocular, 30 uL of 1% solution per eye.
Series [15] is described as follows: AUC (0 to last) in plasma of Brown Norway rat administered 0.3% suspension using 4 uL topical drop to both eyes as single dose by LC-MS/MS analysis. In kind it is ADME. The conditions noted are these: topical or ocular, 4 uL of 0.3% suspension per eye. The arrangement: dose 4 uL, time 0 - last, route ophthalmic.
Series [16] can be described thus: Half life in cynomolgus monkey plasma administered 1% solution using 30 uL topical drop to both eyes as single dose by LC-MS/MS analysis. In kind it is ADME, Macaca fascicularis. The conditions noted are these: topical or ocular, 30 uL of 1% solution per eye.
The test system of series [17] is Rattus norvegicus. The series can be described thus: Antiangiogenic activity in Brown Norway rat laser-induced choroidal neovascularization model assessed as inhibition of neovascularization administered topical drop to both eyes as qd by microscopic analysis. In kind it is functional.
A short description of series [18]: Cmax in posterior eye cup of Brown Norway rat administered 0.3% suspension using 4 uL topical drop to both eyes every 3 hrs for 9 hrs over 10 days and single drop to each eye on day 11 by LC-MS/MS analysis. The conditions noted are these: topical or ocular, 4 uL of 0.3% suspension per eye. In kind it is ADME.
Series [19] in a line: AUC (0 to last) in posterior eye cup of Brown Norway rat administered 0.3% suspension using 4 uL topical drop to both eyes every 3 hrs for 9 hrs over 10 days and single drop to each eye on day 11 by LC-MS/MS analysis. Conditions: topical or ocular, 4 uL of 0.3% suspension per eye. In kind it is ADME.
A short description of series [20]: Cmax in retina of Brown Norway rat administered 0.3% suspension using 4 uL topical drop to both eyes as single dose by LC-MS/MS analysis. It counts as ADME, tissue-based. The arrangement: dose 4 uL, route ophthalmic. The conditions noted are these: topical or ocular, 4 uL of 0.3% suspension per eye.
Series [21] is described as follows: AUC (0 to 6 hrs) in cynomolgus monkey plasma administered 1% solution using 30 uL topical drop to both eyes as single dose by LC-MS/MS analysis. The arrangement: time < 6 hr, dose 30 uL, route ophthalmic. It counts as ADME, Macaca fascicularis. Conditions: topical or ocular, 30 uL of 1% solution per eye.
The subject of series [22] is Rattus norvegicus. Description: Antiangiogenic activity in Brown Norway rat laser-induced choroidal neovascularization model assessed as inhibition of neovascularization administered both eyes every 4.5 hrs for 9 hrs by microscopic analysis. It counts as functional.
Series [23] is described as follows: AUC (0 to last) in plasma of Brown Norway rat administered 0.3% suspension using 4 uL topical drop to both eyes every 3 hrs for 9 hrs over 10 days and single drop to each eye on day 11 by LC-MS/MS analysis. It counts as ADME. The conditions noted are these: topical or ocular, 4 uL of 0.3% suspension per eye.
The nature of series [24]: Tmax in cynomolgus monkey plasma administered 1% suspension using 30 uL topical drop to both eyes as single dose by LC-MS/MS analysis. In kind it is ADME, Macaca fascicularis. The conditions noted are these: topical or ocular, 30 uL of 1% suspension per eye.
Series [25] concerns Rattus norvegicus. Description: Antiangiogenic activity in Brown Norway rat laser-induced choroidal neovascularization model assessed as inhibition of neovascularization administered both eyes every 3 hrs for 9 hrs by microscopic analysis. It counts as functional.
Series [26] is described as follows: AUC (0 to last) in retina of Brown Norway rat administered 0.3% suspension using 4 uL topical drop to both eyes as single dose by LC-MS/MS analysis. It counts as ADME, tissue-based. Also noted: dose 4 uL, time 0 - last, route ophthalmic. The conditions noted are these: topical or ocular, 4 uL of 0.3% suspension per eye.

The structures appear in SMILES notation. Activity calls are given as the source filed them. No cut-off for these calls is given here.

Chain of Vascular endothelial growth factor receptor 2 (P35968 whole entry): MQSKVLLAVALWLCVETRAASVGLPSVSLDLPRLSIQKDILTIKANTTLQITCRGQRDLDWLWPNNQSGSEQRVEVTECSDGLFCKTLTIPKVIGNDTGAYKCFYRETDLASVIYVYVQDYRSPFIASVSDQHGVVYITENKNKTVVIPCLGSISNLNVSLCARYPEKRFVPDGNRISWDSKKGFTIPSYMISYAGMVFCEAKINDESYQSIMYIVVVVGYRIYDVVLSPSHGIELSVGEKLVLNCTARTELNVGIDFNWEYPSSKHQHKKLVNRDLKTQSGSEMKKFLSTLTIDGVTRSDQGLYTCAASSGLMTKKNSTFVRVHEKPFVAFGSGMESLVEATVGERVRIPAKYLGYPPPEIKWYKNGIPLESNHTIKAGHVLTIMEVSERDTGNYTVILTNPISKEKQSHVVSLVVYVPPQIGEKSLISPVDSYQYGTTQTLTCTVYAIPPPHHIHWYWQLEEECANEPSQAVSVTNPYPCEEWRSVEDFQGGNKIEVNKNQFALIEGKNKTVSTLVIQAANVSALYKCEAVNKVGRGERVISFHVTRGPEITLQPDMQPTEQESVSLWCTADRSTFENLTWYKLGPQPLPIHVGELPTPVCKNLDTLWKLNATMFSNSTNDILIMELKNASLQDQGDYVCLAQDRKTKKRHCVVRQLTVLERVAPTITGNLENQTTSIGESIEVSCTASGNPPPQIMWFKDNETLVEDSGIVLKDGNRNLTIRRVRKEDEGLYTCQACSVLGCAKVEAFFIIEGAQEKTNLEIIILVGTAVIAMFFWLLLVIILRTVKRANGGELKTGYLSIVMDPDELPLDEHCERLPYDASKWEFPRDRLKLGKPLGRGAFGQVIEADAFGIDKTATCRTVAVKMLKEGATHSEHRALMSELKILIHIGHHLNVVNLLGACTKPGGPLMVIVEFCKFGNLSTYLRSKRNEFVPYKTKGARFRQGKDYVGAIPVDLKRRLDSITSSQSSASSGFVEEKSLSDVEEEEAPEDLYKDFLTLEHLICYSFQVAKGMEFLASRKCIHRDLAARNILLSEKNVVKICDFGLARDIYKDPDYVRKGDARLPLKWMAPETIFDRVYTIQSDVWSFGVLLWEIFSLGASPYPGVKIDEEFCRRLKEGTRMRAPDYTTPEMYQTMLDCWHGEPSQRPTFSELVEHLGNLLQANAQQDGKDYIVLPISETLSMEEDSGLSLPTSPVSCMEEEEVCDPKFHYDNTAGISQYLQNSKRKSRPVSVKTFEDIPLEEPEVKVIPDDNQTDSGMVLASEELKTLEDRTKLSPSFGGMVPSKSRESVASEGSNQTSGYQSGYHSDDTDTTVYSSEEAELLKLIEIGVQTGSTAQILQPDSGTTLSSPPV

`CNCc1cc(Oc2ccc3c(ccn3C(=O)Nc3cc(C(C)C)[nH]n3)c2)ncn1`: the microsomal CLint at 1 µM in series [1] worked out at 52.3 µL/min/mg.
Consider `O=C(Nc1cccc(C(F)(F)F)c1)c1cccc2cc(Oc3cc(CO)ncn3)ccc12` [BFH-772], for which the half-maximal inhibitory concentration (IC50) (usually the concentration needed to halve the response being measured) in series [2] amounted to 1.3 nM.
In the case of `CNCc1cc(Oc2ccc3c(ccn3C(=O)Nc3cc(C4(C)CC4)on3)c2)ncn1`, in [1], the microsomal CLint at 1 µM is 91 µL/min/mg.
Regarding `CNCc1cc(Oc2ccc3c(ccn3C(=O)Nc3cc(C(F)(F)F)[nH]n3)c2)ncn1`, in series [1], the microsomal CLint at 1 µM came out at 131 µL/min/mg.
Regarding `O=C(Nc1cc(C2CC2)on1)n1ccc2cc(Oc3ncnc4c3CCNC4)ccc21`, in the series with Mus musculus, the inhibition result is “inactive”.
For the compound `CNCc1cc(Oc2ccc3c(ccn3C(=O)Nc3cccc(C(F)(F)F)c3)c2)ncn1`, the microsomal CLint at 1 µM in series [1] came to 43 µL/min/mg.
As to `CNCc1cc(Oc2ccc3c(ccn3C(=O)Nc3cc(C(F)(F)F)n(C)n3)c2)ncn1`, the “inhibition (INH)” value in the series on Rattus norvegicus [3] is recorded as 94%. The Cmax (commonly the highest concentration seen after dosing) in series [4] came to 1910 nM; in [5], 5690 nM; in series [6] it was 32.1 nM; in series [7], 5.38 nM; in series [8] it was 26.9 nM; in series [13], 36.6 nM. The values for the Cmax in [18] and in series [20] were 31800 nM and 683 nM, respectively. For the same compound, the AUC(0-t) (commonly the area under the concentration-time curve up to a stated or last time point) was 14.3 µM·h in [9]; 52 µM·h in series [12]; 0.0343 µM·h in [15]; 515 µM·h in [19]; 0.0244 µM·h in [23]; 4.63 µM·h in series [26]. Also, the half-life (usually how long it takes for the measured level to halve) was 4.38 h in series [10] and 1.61 h in series [16]. Also, the values for the AUC(0-t) at 6 h in series [11] and in [21] were 0.0227 µM·h and 0.0644 µM·h, respectively. The Tmax (commonly the time at which the peak concentration occurs) in series [14] turned out to be 0.67 h; in series [24], 1.67 h. In addition, the ED50 came to 1.4% in the series with Rattus norvegicus [17], 1% with Rattus norvegicus [22] and 0.5% in the series with Rattus norvegicus [25]. Also, in series [1], the microsomal CLint at 1 µM came out at 156 µL/min/mg. The figures for the ED90 in the series with Rattus norvegicus [22] and in the series with Rattus norvegicus [25] were 2.6% and 1.2%, respectively.
As to `O=C(Nc1cc(C2CC2)on1)n1ccc2cc(Oc3cc(CO)ncn3)ccc21`, in the series with Mus musculus, the inhibition entry is “inactive”.
